Assay results: the supplement of paper PMC10307832

What was measured:
Assay in all cases: relative viability (nuclei count vs DMSO), 5 days (fraction); higher = more cells survive
JZL-184 = compound: C1CN(CCC1C(C2=CC3=C(C=C2)OCO3)(C4=CC5=C(C=C4)OCO5)O)C(=O)OC6=CC=C(C=C6)[N+](=O)[O-] [JZL-184]
Outline: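 Acceptance criteria were a control CV below 25% and at least one doubling per plate. Lung cancer cell lines in 1536-well plates got five library-drug doses (not always all listed) √10 apart by pinning and were left 5 days with no medium change. Viability divides treated-well nuclei by vehicle-well nuclei and is the median across plates. Nuclei were counted by MetaXpress from 4× Hoechst images.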

JZL-184 + Alpelisib = compound: C1CN(CCC1C(C2=CC3=C(C=C2)OCO3)(C4=CC5=C(C=C4)OCO5)O)C(=O)OC6=CC=C(C=C6)[N+](=O)[O-] [JZL-184] + Cc1nc(NC(=O)N2CCC[C@H]2C(N)=O)sc1-c1ccnc(C(C)(C)C(F)(F)F)c1 [Alpelisib] (partner 2 µM)
Outline: (§1)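 Dosing by pin tool came one day after lung cancer cell lines were seeded in 1536-well plates, using either one drug or a fixed anchor-drug dose plus five library-drug doses (not always all listed) in √10 steps. After 5 days, nuclei were counted on 4× images. Relative viability is treated-well nuclei count divided by vehicle-well nuclei count, and values are medians of duplicate plates.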

JZL-184 + Olaparib = compound: C1CN(CCC1C(C2=CC3=C(C=C2)OCO3)(C4=CC5=C(C=C4)OCO5)O)C(=O)OC6=CC=C(C=C6)[N+](=O)[O-] [JZL-184] + O=C(c1cc(Cc2n[nH]c(=O)c3ccccc23)ccc1F)N1CCN(C(=O)C2CC2)CC1 [Olaparib] (partner 8 µM)
Outline: as §1

JZL-184 + Lapatinib = compound: C1CN(CCC1C(C2=CC3=C(C=C2)OCO3)(C4=CC5=C(C=C4)OCO5)O)C(=O)OC6=CC=C(C=C6)[N+](=O)[O-] [JZL-184] + CS(=O)(=O)CCNCc1ccc(-c2ccc3ncnc(Nc4ccc(OCc5cccc(F)c5)c(Cl)c4)c3c2)o1 [Lapatinib] (partner 2 µM)
Outline: as §1

JZL-184 + Pictilisib = compound: C1CN(CCC1C(C2=CC3=C(C=C2)OCO3)(C4=CC5=C(C=C4)OCO5)O)C(=O)OC6=CC=C(C=C6)[N+](=O)[O-] [JZL-184] + CS(=O)(=O)N1CCN(Cc2cc3nc(-c4cccc5[nH]ncc45)nc(N4CCOCC4)c3s2)CC1 [Pictilisib] (partner 1 µM)
Outline: as §1

JZL-184 + Linsitinib = compound: C1CN(CCC1C(C2=CC3=C(C=C2)OCO3)(C4=CC5=C(C=C4)OCO5)O)C(=O)OC6=CC=C(C=C6)[N+](=O)[O-] [JZL-184] + C[C@]1(O)C[C@@H](c2nc(-c3ccc4ccc(-c5ccccc5)nc4c3)c3c(N)nccn32)C1 [Linsitinib] (partner 1 µM)
Outline: as §1

JZL-184 + Foretinib = compound: C1CN(CCC1C(C2=CC3=C(C=C2)OCO3)(C4=CC5=C(C=C4)OCO5)O)C(=O)OC6=CC=C(C=C6)[N+](=O)[O-] [JZL-184] + COc1cc2c(Oc3ccc(NC(=O)C4(C(=O)Nc5ccc(F)cc5)CC4)cc3F)ccnc2cc1OCCCN1CCOCC1 [Foretinib] (partner 0.25 µM)
Outline: as §1

JZL-184 + Crizotinib = compound: C1CN(CCC1C(C2=CC3=C(C=C2)OCO3)(C4=CC5=C(C=C4)OCO5)O)C(=O)OC6=CC=C(C=C6)[N+](=O)[O-] [JZL-184] + C[C@@H](Oc1cc(-c2cnn(C3CCNCC3)c2)cnc1N)c1c(Cl)ccc(F)c1Cl [Crizotinib] (partner 1 µM)
Outline: as §1

JZL-184 + Navitoclax = compound: C1CN(CCC1C(C2=CC3=C(C=C2)OCO3)(C4=CC5=C(C=C4)OCO5)O)C(=O)OC6=CC=C(C=C6)[N+](=O)[O-] [JZL-184] + CC1(C)CCC(c2ccc(Cl)cc2)=C(CN2CCN(c3ccc(C(=O)NS(=O)(=O)c4ccc(N[C@H](CCN5CCOCC5)CSc5ccccc5)c(S(=O)(=O)C(F)(F)F)c4)cc3)CC2)C1 [Navitoclax] (partner 0.5 µM)
Outline: as §1

JZL-184 + Bortezomib = compound: C1CN(CCC1C(C2=CC3=C(C=C2)OCO3)(C4=CC5=C(C=C4)OCO5)O)C(=O)OC6=CC=C(C=C6)[N+](=O)[O-] [JZL-184] + CC(C)C[C@H](NC(=O)[C@H](Cc1ccccc1)NC(=O)c1cnccn1)B(O)O [Bortezomib] (partner 0.002 µM)
Outline: as §1

Cell Line: NCI-H1299
- relative viability (JZL-184; 0.04 µM): 1.06
- relative viability (JZL-184; 0.4 µM): 1
- relative viability (JZL-184; 1.265 µM): 1.05
- relative viability (JZL-184; 4 µM): 0.977
- relative viability (JZL-184 + Alpelisib; first compound 0.04 µM): 1.14
- relative viability (JZL-184 + Alpelisib; first compound 0.4 µM): 1.01
- relative viability (JZL-184 + Alpelisib; first compound 1.265 µM): 1.08
- relative viability (JZL-184 + Alpelisib; first compound 4 µM): 1.04
- relative viability (JZL-184 + Olaparib; first compound 0.04 µM): 1.01
- relative viability (JZL-184 + Olaparib; first compound 0.4 µM): 0.937
- relative viability (JZL-184 + Olaparib; first compound 1.265 µM): 0.936
- relative viability (JZL-184 + Olaparib; first compound 4 µM): 0.911
- relative viability (JZL-184 + Lapatinib; first compound 0.04 µM): 0.954
- relative viability (JZL-184 + Lapatinib; first compound 0.4 µM): 0.924
- relative viability (JZL-184 + Lapatinib; first compound 1.265 µM): 0.969
- relative viability (JZL-184 + Lapatinib; first compound 4 µM): 0.912
- relative viability (JZL-184 + Pictilisib; first compound 0.04 µM): 0.922
- relative viability (JZL-184 + Pictilisib; first compound 0.4 µM): 0.82
- relative viability (JZL-184 + Pictilisib; first compound 1.265 µM): 0.779
- relative viability (JZL-184 + Pictilisib; first compound 4 µM): 0.655
- relative viability (JZL-184 + Linsitinib; first compound 0.04 µM): 1.16
- relative viability (JZL-184 + Linsitinib; first compound 0.4 µM): 1.01
- relative viability (JZL-184 + Linsitinib; first compound 1.265 µM): 0.95
- relative viability (JZL-184 + Linsitinib; first compound 4 µM): 0.974
- relative viability (JZL-184 + Foretinib; first compound 0.04 µM): 1.11
- relative viability (JZL-184 + Foretinib; first compound 0.4 µM): 1.06
- relative viability (JZL-184 + Foretinib; first compound 1.265 µM): 1.14
- relative viability (JZL-184 + Foretinib; first compound 4 µM): 1.04
- relative viability (JZL-184 + Crizotinib; first compound 0.04 µM): 0.982
- relative viability (JZL-184 + Crizotinib; first compound 0.4 µM): 0.944
- relative viability (JZL-184 + Crizotinib; first compound 1.265 µM): 0.915
- relative viability (JZL-184 + Crizotinib; first compound 4 µM): 0.884
- relative viability (JZL-184 + Navitoclax; first compound 0.04 µM): 1.06
- relative viability (JZL-184 + Navitoclax; first compound 0.4 µM): 1.05
- relative viability (JZL-184 + Navitoclax; first compound 1.265 µM): 1.06
- relative viability (JZL-184 + Navitoclax; first compound 4 µM): 1.05
- relative viability (JZL-184 + Bortezomib; first compound 0.04 µM): 1.04
- relative viability (JZL-184 + Bortezomib; first compound 0.4 µM): 0.997
- relative viability (JZL-184 + Bortezomib; first compound 1.265 µM): 1.04
- relative viability (JZL-184 + Bortezomib; first compound 4 µM): 0.979
